Measured values from patent publication US11407725B2 (The Board of Trustees of the University of Illinois, priority 2018, dated 2022).
“And” between values parts separate entries of the source, which are not always exact repeats. Equal values may be shown once. “Also recorded” adds a separate entry of the source.

How the values were obtained:
MDA-MB-231 mammospheres = assay: Mammosphere culture and imaging; type: cell-based; conditions: 2 μM dye
Protocol: Mammosphere formation from MDA-MB-231 breast cancer cells was performed as described previously with some modifications. Cells were resuspended and diluted to a density of 2000 cells/mL in DMEM/F12 (Sigma-Aldrich) supplemented with 2% B27 supplement (Thermo Fisher), 40 ng/mL rhFGF-2 (Miltenyi Biotec), and 20 ng/mL rhEGF (Gibco®). They were plated in ultra-low attachment 6-well plates (Corning) and incubated at 37° C. and 5% CO2 for 5 days or until most mammospheres were between […]. At this point, the mammospheres were transferred to a 4-well chamber slide coated with Poly-L-lysine as described previously. The mammospheres were then either immediately imaged with AlDeSense or Ctrl-AlDeSense, or the media was exchanged with full DMEM media supplement with 10% FBS and non-essential amino acids to allow differentiation over 36 hours.
At various time points, the mammospheres were stained with 2 μM AlDeSense or Ctrl-AlDeSense as described above. Staining continued for 1 h at room temperature before imaging with a wide field fluorescence microscope (Zeiss Axiovert 200M). A GFP filter set was used to excite the fluorophores. Exposure times were set equally for all images taken within a data set and configured to give low signal in Ctrl-AlDeSense stained tumorspheres. Only mammospheres greater than 50 μm in diameter were considered in the analysis.

B16F0 melanoma cells = assay: B16F0 melanoma confocal imaging (e-CSC vs non-CSC); type: cell-based, murine
Protocol: B16F0 Melanoma Confocal Imaging. B16F0 murine melanoma cells were cultured for 5 days on polyacrylamide hydrogels with or without spiral patterns as described previously (Drug Discov Today 2014, 19, 1953). The coverslips on which the hydrogels and cells were mounted were transferred to a glass-bottomed dish for confocal imaging, leaving the cells intact. Solutions of either 2 μM AlDeSense AM or 2 μM Ctrl-AlDeSense AM in PBS were added to the two types of cells. The cells were incubated at room temperature for 1 h and then immediately imaged. Confocal imaging was performed on a Zeiss LSM700 Confocal Microscope, utilizing the 488 nm laser line to excite AlDeSense AM and the 20×/0.8 objective. Three different coverslips of cells were imaged for each set of conditions and at least 6 μmages were taken for each coverslip. Using ImageJ, ROIs were drawn around areas covered with cells and mean fluorescence values were measured for each image.

[1] = system: panel of the most common ALDH isoforms; assay: AlDeSense isoform selectivity assay; type: biochemical, human; conditions: 20 units of each isoform, 1 μM AlDeSense
Protocol: The activity of each isoform of ALDH was confirmed by monitoring the production of NADH at 340 nm when incubated with the most commonly used substrate for that enzyme (propionaldehyde for ALDH1A1, ALDH1A2, ALDH1A3, ALDH2 and ALDH4A1; benzaldehyde for ALDH3A1, and succinic semialdehyde for ALDH5A1). Each isoform was diluted with 50 mM triethanolamine (TEA, pH 7.4) to a final concentration of 1 μM and placed in a 1 mL quartz cuvette. Directly before measurement, NAD^+ was added to final concentration of 2.5 mM and the preferred substrate was added to a final concentration of 1 mM. Absorbance spectra were taken from 300 to 500 nm every half minute for 15 minutes. Units of activity for each enzyme were calculated from the slope of absorbance increase at 340 nm over time, (1 unit=1 μmol substrate turned over/[…]/min).
Activation of AlDeSense was assessed using 20 units of each ALDH isoform. Activity was determined by activity measurements using each isoform's preferred substrate (1 unit=1 μmol substrate turned over/mol enzyme/min). Further details are in the supplementary information. […]
AlDeSense activation was determined using fluorescence. […] After vigorous mixing, the reaction was monitored at room temperature for 15 min. Fluorescence spectra were acquired according to following parameters: λex=498 nm, and emission range=505-580 nm. […]

[2] = system: e-CSC and non-CSC B16F0 tumors; assay: In vivo melanoma tumor fluorescence imaging; design: species or system mice; conditions: 1 and 2 weeks
ALDH1A1 = target: T1, ALDH1A1 (Homo sapiens, UniProt P00352); assay: Fluorescence turn-on of AlDeSense with recombinant ALDH1A1; type: biochemical; conditions: fluorescent enhancement when treated with ALDH1A1; 1 μM probe
T1 construct: made in house
T1 sequence (P00352 1-501): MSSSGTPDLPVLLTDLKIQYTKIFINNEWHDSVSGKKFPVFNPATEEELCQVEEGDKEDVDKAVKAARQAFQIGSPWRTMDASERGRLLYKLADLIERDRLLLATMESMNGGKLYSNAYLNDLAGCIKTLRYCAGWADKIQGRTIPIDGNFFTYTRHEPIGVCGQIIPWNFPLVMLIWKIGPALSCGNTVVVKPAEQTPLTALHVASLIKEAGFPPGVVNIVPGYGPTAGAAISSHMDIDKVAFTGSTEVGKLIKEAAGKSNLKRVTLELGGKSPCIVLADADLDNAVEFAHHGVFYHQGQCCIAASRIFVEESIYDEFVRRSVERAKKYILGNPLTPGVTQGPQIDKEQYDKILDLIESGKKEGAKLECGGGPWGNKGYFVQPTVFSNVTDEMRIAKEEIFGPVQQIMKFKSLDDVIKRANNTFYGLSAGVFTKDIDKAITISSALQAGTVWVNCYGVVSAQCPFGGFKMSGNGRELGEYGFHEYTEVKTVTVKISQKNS
Protocol: Activation of AlDeSense was assessed using 20 units of each ALDH isoform. Activity was determined by activity measurements using each isoform's preferred substrate (1 unit=1 μmol substrate turned over/mol enzyme/min). Further details are in the supplementary information. All enzymatic reactions were performed in 50 mM triethanolamine buffer (pH 7.4, Thermo Fisher) with 2.5 mM NAD+(Alfa Aesar) and 5% v/v DMSO (Thermo Fisher) in a 1 mL quartz cuvette at room temperature.
AlDeSense activation was determined using fluorescence. Immediately before measurement, AlDeSense (1 μM) was added to a quartz cuvette. After vigorous mixing, the reaction was monitored at room temperature for 15 min. Fluorescence spectra were acquired according to following parameters: λex=498 nm, and emission range=505-580 nm. All scans were normalized to the signal from AlDeSense in 50 mM TEA and 2.5 mM NAD+(without enzyme). Endpoint measurements at 15 min were performed in triplicate and reported as the averages±standard deviation.

A549 cells = assay: Flow cytometry of A549 cells with red-AlDeSense; type: cell-based
Protocol: For all cell lines, 200,000 cells in a single-cell suspension were transferred into 1.5 mL Eppendorf tubes. Cells were pelleted by centrifugation at 400 g for 5 minutes at room temperature. After removing the supernatant by aspiration, cells were resuspended in 300 μL premixed PBS supplemented with verapamil, probenecid, and novobiocin. […] Samples were immediately stored on ice. Cells were stained with red-AlDeSense or Ctrl-red-AlDeSense (100 μL of 4 μM dye solution; dyes were normalized by fluorescence spectroscopy). Samples were analyzed on a BD LSR II Flow Cytometry Analyzer using a 488 nm laser and a 550 LP and 610/30 filter set. Samples were analyzed every 5 minutes for 15 minutes, with the samples being placed back on ice between data collection. Data were analyzed on FCS Express 6.04.

SMILES	brightness of mammospheres versus Ctrl-AlDeSense (MDA-MB-231 mammospheres) [fold]	brightness of e-CSCs versus e-CSCs treated with Ctrl-AlDeSense (B16F0 melanoma cells) [fold]	brightness of e-CSCs versus non-CSCs (B16F0 melanoma cells; both stained with AlDeSense) [fold]	cross-reactivity against panel of ALDH isoforms [1]	signal in e-CSC versus non-CSC tumors [2]	Turn-on (fold) (ALDH1A1)	extent of red-AlDeSense activation with DEAB (A549 cells; A549 cells, plus 20 μM DEAB) [%]	A549 cells displaying high ALDH1A1 activity (A549 cells; flow cytometry, 1 μM dye) [%]
Cc1cc(C=O)ccc1-c1c2cc(F)c(=O)cc-2oc2cc(O)c(F)cc12 [AlDeSense]	3	9.0	11.3	only ALDH1A1 led to probe activation; also recorded: did not observe cross-reactivity; also recorded: selective for only the ALDH1A1 isoform	consistently higher signal	20 fold and 20.0 fold	–	–
Cc1cc(C=O)c(F)c(F)c1C1=C2C=CC(=O)C=C2[Si](C)(C)c2cc(O)ccc21	–	–	–	–	–	–	67.8±3.4	78.1±0.3
